According to patent US8217074B2, “Use of sargachromenol” (Catholic University Industry Academic Cooperation Foundation, priority 2007, dated 2012):

What was measured:
[1] = test system: caspase-8 and caspase-3 in human keratinocytes HaCaT; assay: Western blot of apoptosis-related factors; type: cell-based
Procedure: Human keratinocytes HaCaT cells were cultured in the same manner as in Example 2-1 and transferred to a 10 cm plate, at 2×10^6 cells/well. After about 18 hours of serum starvation, the cells were treated with 0, 1, 2 or 5 μg/mL sargachromenol. 18 hours later, the cells were lysed using RIPA buffer [12 mM EDTA, 137 mM NaCl, 20 mM Tris-HCl (pH 8.0), 1 mM Na3VO4 (Sigma-Aldrich, USA) 10 mM NaF (Sigma), 1 mM PMSF (Sigma), 1% Triton X-100, 10% glycerol and protease inhibitor cocktail (Roche, Germany)]. The lysed cells were put in a 1.5 mL tube and, after pipetting, put on ice for 20 minutes. The lysate was centrifuged at 14000 rpm for 20 minutes, and protein was isolated from the supernatant. Sample concentration of the isolated protein was determined using a BCA protein analysis kit (Pierce, Rockford, Ill.) and electrophoresis (SDS-PAGE) was carried out. Western blot analysis was carried out on the protein isolated by the electrophoresis. Western blot analysis was carried out as follows. After electrophoresis of the sample, the protein was transferred from the gel to a polyvinylidene fluoride membrane (Pall Corporation). Then, after blocking the membrane at room temperature for 2 hours using 3% BSA solution (Amresco, USA), it was treated with primary antibodies and reaction was carried out at room temperature for 2 hours. The primary antibodies were anti-caspase-3 antibody, anti-caspase-8 antibody and anti-actin antibody (Cell Signaling Technology, Beverly, Mass.), which are antibodies associated in apoptosis-related signaling. After reaction with the primary antibodies, it was washed with TBS for about 15 minutes and further reacted for 45 minutes by treating with secondary antibodies. The secondary antibodies were goat anti-mouse antibody and goat anti-rabbit antibody (Zymed, San Francisco, USA). Then, after washing sufficiently with TBS for over 30 minutes, protein was identified using an ECL detection kit (Santa Cruz). Cells not treated with sargachromenol were used as control group.

[2] = test system: human keratinocytes HaCaT; assay: Apoptosis by FACS analysis (Propidium Iodide staining); type: cell-based; details: 24 hours
Procedure: Apoptosis effect of the sargachromenol of the present invention on human keratinocytes was investigated by FACS and TUNEL analysis. First, for FACS analysis, HaCaT cells were cultured in the same manner as in Example 2-1, transferred to a 10 cm plate, with 2×10^6 cells/well, and incubated at 37° C. in a 5% CO2 incubator for 24 hours. After treating the cells with 0, 1, 2 or 5 μg/mL sargachromenol, they were incubated at 37° C. in a 5% CO2 incubator for 24 hours. Then, the cells were released from the plate using trypsin, and fixed using 4% paraformaldehyde. The fixed cells were treated with 70% alcohol to increase cell membrane permeability. Then, the cells were stained with Propidium Iodide (PI) solution for 30 minutes, and subjected to FACS analysis. Cells treated with DMSO only and not with sargachromenol were used as control group.

[3] = test system: caspase-8, caspase-9 and caspase-3 in human keratinocytes HaCaT; assay: Western blot of apoptosis-related factors after pre-treatment and UVB irradiation; type: cell-based
Procedure: In Example 4, it was confirmed that UV further enhances the apoptosis of human keratinocytes by sargachromenol. Thus, it was investigated whether UV has effect on sargachromenol-induced apoptosis-related factors. First, human keratinocytes HaCaT cells were cultured in the same manner as in Example 2-1 and transferred to a 10 cm plate, at 2×10^6 cells/well. After about 18 hours of serum starvation, each well was pre-treated with 0, 2 or […] sargachromenol for 30 minutes and UVB was irradiated. 8 hours later, the cells were lysed using RIPA buffer [12 mM EDTA, 137 mM NaCl, 20 mM Tris-HCl (pH 8.0), 1 mM Na3VO4 (Sigma-Aldrich, USA) 10 mM NaF (Sigma), 1 mM PMSF (Sigma), 1% Triton X-100, 10% glycerol and protease inhibitor cocktail (Roche, Germany)]. Electrophoresis (SDS-PAGE) was carried out after determination of protein concentration. Western blot analysis was carried out on the isolated protein as in Example 3. Cells not treated with sargachromenol were used as control group.

[4] = test system: human keratinocytes HaCaT; assay: Cytotoxicity analysis by MTT cell viability assay; type: cell-based; details: 0, 1, 2, 5 or 10 μg/mL, 24 hours
Procedure: (§1) Cytotoxicity effect of the sargachromenol of the present invention isolated and purified in Example 1 on human keratinocytes HaCaT was investigated by MTT cell viability analysis.
(§2) HaCaT cells were obtained from Professor N. Fusenig of the German Cancer Research Institute. The HaCaT cells were incubated in DMEM medium containing 10% FBS (Hyclone), 100 unit/mL penicillin and 100 μg/mL streptomycin at 37° C., in a 5% CO2 incubator. During the incubation, cell viability and number of cells were measured periodically using a hemacytometer (Neubauer, Germany) by the trypan blue exclusion method. In all experiments, initial cell viability was maintained over 95%.
(§3) The cultured HaCaT cells were transferred to a 96-well plate, with 5×10^4 cells/well, and incubated at 37° C. in a 5% CO2 incubator for 24 hours. Then, the cultured HaCaT cells were treated with 0, 1, 2, 5 or 10 μg/mL sargachromenol, and further incubated at 37° C. in a 5% CO2 incubator for 24 hours. Then, without removing the medium, each well was treated with 5 mg/mL MTT reagent at a concentration of 20 μL/100 μL, and incubated for 2 hours. Subsequently, after removing the medium, 150 μL of DMSO was added to each well and cell viability was analyzed by measuring absorbance at 540 nm using an ELISA reader (Molecular Devices, USA). Cells non-treated with sargachromenol were used as control group. Cell viability was calculated as relative value of that of the control group (100%).

[5] = Cytotoxicity analysis by MTT cell viability assay; type: cell-based, human; details: human, HaCaT keratinocytes
Procedure: as §1, §2, §3

[6] = test system: human keratinocytes HaCaT; assay: Apoptosis by TUNEL analysis; type: cell-based; details: increasing concentration, 24 hours
Procedure: For TUNEL analysis, the cells were incubated for 24 hours as above, and transferred to a chamber slide using an ApopTag® fluorescein in situ apoptosis detection kit. After adhering the cells to the bottom well, they were washed with pH 7.4 PBS solution. The chamber slide was immersed in PBS solution of 4% paraformaldehyde for 30 minutes at room temperature in order to completely fix the cells. And, the cells were washed with PBS and immersed in blocking solution (1% H2O2 in methanol) for 30 minutes at room temperature in order to inhibit the action of endogenous peroxidase. Then, the cells were washed with PBS and immersed in 0.1% sodium citrate solution containing 0.1% Triton X-100 at 4° C. for 2 minutes in order to make the cells permeable. For labeling, the cells were washed with PBS two more times and diluted TUNEL reaction mixture was added to the slide. After incubating in a 37° C. humidified chamber for 60 minutes, the slide was washed with PBS. Then, the slide was further incubated in TBS solution containing 1% BSA and 5% FBS for 20 minutes. After adding anti-fluorescein antibody conjugated with horse-radish peroxidase to the culture medium and reacting at 37° C. for 1 hour, the slide was washed with PBS and DAB-matrix solution was added. Hematoxylin solution was added for counter staining. […]

[7] = test system: nerve cell; details: Chi Kwan Tsang et al, Neuroscience, 2005; cited from earlier work
[8] = test system: UVB irradiated human keratinocytes HaCaT; assay: MTT cell viability after sargachromenol pre-treatment and UVB irradiation; type: cell-based
Procedure: Synergic apoptosis effect by UV and sargachromenol on human keratinocytes was investigated. HaCaT cells were cultured in the same manner as in Example 2-1 and transferred to a 6-well plate, at 3×10^5 cells/well. After about 12 hours of serum starvation, each well was pre-treated with 0, 0.5, 1, 2, 5 or 10 μg/mL sargachromenol, and UVB was irradiated at 150 J/m^2 (FS24T12/UVB/HO, Voltare Co., Fairfield, Conn., USA, 290-320 nm). 18 hours later, without removing the medium, each well was treated with 5 mg/mL MTT reagent at a concentration of 20 μL/100 μL, and incubated for 2 hours. Subsequently, after removing the medium, 150 μL of DMSO was added to each well and cell viability was analyzed by measuring absorbance at 540 nm using a spectrophotometer. Cells non-treated with sargachromenol were used as control group. Cell viability was calculated as relative value of that of the control group (100%).

For CC(C)=CCC/C(=C/CC/C(C)=C/CCC1(C)C=Cc2cc(O)cc(C)c2O1)C(=O)O (centres unmarked) [sargachromenol], the “cleavage of caspase-8 and caspase-3” value ([1]; 0, 1, 2 or 5 μg/mL, higher concentration, no UV) was “caspase-8 and caspase-3 were cleaved”, the “quantity of cleaved protein” value ([1]; 0, 1, 2 or 5 μg/mL, no UV) was “increased in a concentration-dependent manner” and the activation of caspase ([1]; 5 μg/mL sargachromenol only, 18 hours later) was “Activation of caspase was observed”. The “apoptosis effect, concentration comparison (FACS)” value ([2]; 5 μg/mL versus 1 μg/mL) was “better at treatment with 5 μg/mL than 1 μg/mL”, the “apoptosis effect versus control group (FACS)” value ([2]; 1, 2 or 5 μg/mL, control DMSO only) was “superior in the cells treated with sargachromenol than in the control group” and the activation of caspase ([3]; 2 or 5 μg/mL sargachromenol only, no UVB, 8 hours) was “activation of caspase was not observed”. For the same compound, the cleaved caspases ([3]; pre-treated with sargachromenol and irradiated with UVB, 8 hour later) was “cleaved caspase-8, caspase-9 and caspase-3 were observed”, the “cell viability, concentration dependence” value [4] was “cell viability decreased as the concentration of sargachromenol increased” and the viability at 24 h, 5 μg/mL ([5]; 5 μg/mL sargachromenol only, without UV irradiation) was at least 40%. For the same compound, the cytotoxicity at 24 h, 5 μg/mL ([5]; 5 μg/mL sargachromenol, 24 hours, relative to control group (100%), no UV, read-out: reduction of cell viability) was 40%, the “number of TUNEL-positive (dead) cells” value [6] was “increased as the concentration of the sargachromenol of the present invention increased” and the “NGF (nerve growth factor)-dependent nerve cell growth promoting activity” value [7] was “reported to have NGF (nerve growth factor)-dependent nerve cell growth promoting activity”. The viability at 1 µg/mL ([8]; Homo sapiens, HaCaT, light or radiation study, 1 μg/mL pre-treatment, UVB 150 J/m^2, 18 hours later) was about 25% and the “apoptosis versus cells without UV” value ([8]; pre-treated with sargachromenol and irradiated with UV, compared with same condition without UV) was “much more increased apoptosis”.
